# Data published in PubChem BioAssay AID2060884 (Molecular Pharmacology Branch, DTP, NCI, 2025).
# System: NCI-H929 complex spheroids, viability % test/control
# Test: Anticancer human tumor NCI-H929 cell line growth inhibition [RAS];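 also: compound exposure lasted seven days before viability was read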
# Conditions: for IC50: curve of first compound; for viability, T/C: stronger effect = lower value
# Excerpt: RAS pathway inhibitors in Combinations in Complex Spheroids
# A high-throughput screen of multi-cell type tumor spheroids was designed to identify active combinations of RAS pathway inhibitors and targeted small molecules. Complex spheroids include a stromal component modeled by human endothelial cells (HUVEC) and fibroblasts modeled by human mesenchymal stem cells (MSCs). The concentration ranges selected for each drug and investigational agent were based upon clinically achievable concentrations if the clinical Cmax of the agent was known.
# Compounds. The drugs and investigational agents: abemaciclib (NSC768073), cobimetinib (NSC768068), divarasib (GDC6063, NSC841802), docetaxel (NSC628503), GDC-1971 (RLY-1971, NSC841576), gemcitabine (NSC613327), inavolisib (NSC800729), ipatasertib (NSC767898), KB-0742 (NSC834161), MRTX-1133 (NSC836407), osimertinib (NSC779217), RMC-4630 (NSC839698), RMC-6236 (NSC851965), RMC-6291 (NSC852671), Ro-3306 (NSC812927), sapanisertib (NSC764658), SN-38 (NSC673596), staurosporine (NSC755774), SY5609 (NSC837396), and tovorafenib (DAY101, NSC766906), were obtained from the National Cancer Institute (NCI) Developmental Therapeutics Program Chemical Repository. The FDA-approved anticancer drug set is available from the NCI Developmental Therapeutics Program. […] The stock solutions were prepared in dimethyl sulfoxide (DMSO, Sigma-Aldrich, St. Louis, MO, cat. D2650) at 800-fold the tested concentration and stored at -70 degrees C prior to their use. All drugs and investigational agents were tested over a range starting from a high concentration at or near the clinical Cmax and decreasing in half-log increments. If the clinical Cmax for an agent had not been determined, the highest concentration tested was 10 microM.
# Cell Culture. All cells were maintained in an incubator at 37 degrees C and 5% CO2 with 95% humidity. The PDC lines were cultured according to standard operating procedures established by the NCI PDMR. All PDCs were thawed and cultured in Matrigel-coated flasks prepared with a working solution of 1X Ham's F-12 nutrient mix, without supplementation (Invitrogen, Waltham, MA, cat. 11765054), 100 U/mL penicillin-streptomycin (Invitrogen, cat. 15140122), and 2.5% Matrigel (Corning Inc., Corning, NY, cat. 354248) for the first three passages. The 362531-283-R-J2-PDC and 782815-120-R-J1-PDC lines were cultured in 6C/Colon 1B media, which includes advanced DMEM/F-12 (Thermo Fisher Scientific, cat. 12634028), 10 mM HEPES (Thermo Fisher Scientific, cat. 15630080), 1X GlutaMAX supplement (Thermo Fisher Scientific, cat. 35050061), 0.1 mg/mL primocin (InvivoGen, San Diego, CA, cat. ant-pm-2), 10% defined fetal bovine serum, heat inactivated (HyClone Laboratories Inc., Logan, UT, cat. SH30070.03HI), 50% L-WRN conditioned media (ATCC, cat. CRL-3276), 1.25 mM N-Acetyl-L-cysteine (Sigma-Aldrich, cat. A9165), 10 mM nicotinamide (Sigma-Aldrich, cat. N0636), 1X B-27 supplement (Thermo Fisher Scientific, cat. 17504044), 1X N-2 supplement (Thermo Fisher Scientific, cat. 17502048), 50 ng/mL human EGF (Thermo Fisher Scientific, cat. PHG0311), and 10 microM Y-27632 dihydrochloride (Tocris Bioscience, cat. 1254). The K12877-001-R-J1-PDC line was cultured in 6I media, which includes all 6C/Colon 1B media plus 10 ng/mL human FGF-10 (PeproTech, cat. 100-26), 1 ng/mL human FGF-2 (PeproTech, cat. 100-18B), 1 µM prostaglandin E2 (Tocris Bioscience, cat. 2296), […] hydrocortisone (Sigma-Aldrich, cat. H4001), and […] bovine insulin (Sigma-Aldrich, cat. I6634). The K86415-001-R-J1-PDC line was cultured in 6D media, which includes all 6C/Colon 1B media components minus the L-WRN conditioned media. The 485176-168-R4-J1-PDC was cultured in PANC media, which includes all 6C/Colon 1B media plus 100 ng/mL human FGF-10 (PeproTech, cat. 100-26), 500 nM SB-431542 (Selleckchem, cat. S1067), and 10 nM gastrin (Tocris Bioscience, cat. 3006). […]
# [1] = second compound 0.0316 µM, first compound 0.0316 µM
# [2] = second compound 0.0316 µM, first compound 0.1 µM
# [3] = second compound 0.0316 µM, first compound 0.316 µM
# [4] = second compound 0.0316 µM, first compound 1 µM
# [5] = second compound 0.0316 µM, first compound 3.16 µM
# [6] = second compound 0.0316 µM, first compound 10 µM
# [7] = second compound 0.1 µM, first compound 0.0316 µM
# [8] = second compound 0.1 µM, first compound 0.1 µM
# [9] = second compound 0.1 µM, first compound 0.316 µM
# [10] = second compound 0.1 µM, first compound 1 µM
# [11] = second compound 0.1 µM, first compound 3.16 µM
# [12] = second compound 0.1 µM, first compound 10 µM
# [13] = second compound 0.316 µM, first compound 0.0316 µM
# [14] = second compound 0.316 µM, first compound 0.1 µM
# [15] = second compound 0.316 µM, first compound 0.316 µM
# [16] = second compound 0.316 µM, first compound 1 µM
# [17] = second compound 0.316 µM, first compound 3.16 µM
# [18] = second compound 0.316 µM, first compound 10 µM
# [19] = second compound 1 µM, first compound 0.0316 µM
# [20] = second compound 1 µM, first compound 0.1 µM
# [21] = second compound 1 µM, first compound 0.316 µM
# [22] = second compound 1 µM, first compound 1 µM
# [23] = second compound 1 µM, first compound 3.16 µM
# [24] = second compound 1 µM, first compound 10 µM
# [25] = second compound 3.16 µM, first compound 0.0316 µM
# [26] = second compound 3.16 µM, first compound 0.1 µM
# [27] = second compound 3.16 µM, first compound 0.316 µM
# [28] = second compound 3.16 µM, first compound 1 µM
# [29] = second compound 3.16 µM, first compound 3.16 µM
# [30] = second compound 3.16 µM, first compound 10 µM
# [31] = second compound 10 µM, first compound 0.0316 µM
# [32] = second compound 10 µM, first compound 0.1 µM
# [33] = second compound 10 µM, first compound 0.316 µM
# [34] = second compound 10 µM, first compound 1 µM
# [35] = second compound 10 µM, first compound 3.16 µM
# [36] = second compound 10 µM, first compound 10 µM
compound,measurement,setting,value
CC(C)NCC(C(=O)N1CCN(c2ncnc3c2C(C)CC3O)CC1)c1ccc(Cl)cc1 (centres undefined) + C#Cc1c(F)ccc2cc(O)cc(-c3ncc4c(N5CC6CCC(C5)N6)nc(OCC56CCCN5CC(F)C6)nc4c3F)c12,IC50,second compound 0.0316 µM,4.58 µM
same,IC50,second compound 0.1 µM,3.05 µM
same,IC50,second compound 0.316 µM,3.32 µM
same,IC50,second compound 1 µM,3.81 µM
same,IC50,second compound 3.16 µM,2.83 µM
same,IC50,second compound 10 µM,1.59 µM
same,"viability, T/C",[1],105%
same,"viability, T/C",[2],105%
same,"viability, T/C",[3],111%
same,"viability, T/C",[4],102%
same,"viability, T/C",[5],66%
same,"viability, T/C",[6],16.3%
same,"viability, T/C",[7],96.9%
same,"viability, T/C",[8],105%
same,"viability, T/C",[9],109%
same,"viability, T/C",[10],104%
same,"viability, T/C",[11],48.3%
same,"viability, T/C",[12],14.1%
same,"viability, T/C",[13],96.2%
same,"viability, T/C",[14],101%
same,"viability, T/C",[15],108%
same,"viability, T/C",[16],106%
same,"viability, T/C",[17],51.6%
same,"viability, T/C",[18],13.6%
same,"viability, T/C",[19],98.4%
same,"viability, T/C",[20],101%
same,"viability, T/C",[21],108%
same,"viability, T/C",[22],108%
same,"viability, T/C",[23],58%
same,"viability, T/C",[24],7.88%
same,"viability, T/C",[25],97.7%
same,"viability, T/C",[26],103%
same,"viability, T/C",[27],107%
same,"viability, T/C",[28],106%
same,"viability, T/C",[29],44.2%
same,"viability, T/C",[30],9.12%
same,"viability, T/C",[31],94.2%
same,"viability, T/C",[32],92.1%
same,"viability, T/C",[33],101%
same,"viability, T/C",[34],67.5%
same,"viability, T/C",[35],21.9%
same,"viability, T/C",[36],2.52%
CC(Nc1ccc2c(c1)OCCn1cc(N3C(=O)OCC3C(F)F)nc1-2)C(N)=O (centres undefined) + C#Cc1c(F)ccc2cc(O)cc(-c3ncc4c(N5CC6CCC(C5)N6)nc(OCC56CCCN5CC(F)C6)nc4c3F)c12,IC50,second compound 0.0316 µM,> 10 µM
same,IC50,second compound 0.1 µM,> 10 µM
same,IC50,second compound 0.316 µM,> 10 µM
same,IC50,second compound 1 µM,> 10 µM
same,IC50,second compound 3.16 µM,9.56 µM
same,IC50,second compound 10 µM,4.91 µM
same,"viability, T/C",[1],99.8%
same,"viability, T/C",[2],102%
same,"viability, T/C",[3],112%
same,"viability, T/C",[4],110%
same,"viability, T/C",[5],114%
same,"viability, T/C",[6],66.2%
same,"viability, T/C",[7],95%
same,"viability, T/C",[8],102%
same,"viability, T/C",[9],109%
same,"viability, T/C",[10],114%
same,"viability, T/C",[11],113%
same,"viability, T/C",[12],73.7%
same,"viability, T/C",[13],97.1%
same,"viability, T/C",[14],102%
same,"viability, T/C",[15],112%
same,"viability, T/C",[16],115%
same,"viability, T/C",[17],114%
same,"viability, T/C",[18],70.3%
same,"viability, T/C",[19],94.6%
same,"viability, T/C",[20],101%
same,"viability, T/C",[21],112%
same,"viability, T/C",[22],115%
same,"viability, T/C",[23],113%
same,"viability, T/C",[24],62.6%
same,"viability, T/C",[25],98.4%
same,"viability, T/C",[26],102%
same,"viability, T/C",[27],110%
same,"viability, T/C",[28],114%
same,"viability, T/C",[29],110%
same,"viability, T/C",[30],47.7%
same,"viability, T/C",[31],96.6%
same,"viability, T/C",[32],100%
same,"viability, T/C",[33],98.6%
same,"viability, T/C",[34],94.4%
same,"viability, T/C",[35],70.2%
same,"viability, T/C",[36],17.4%
